From patent US12252524B2, “GIP/GLP1 co-agonist compounds” (Eli Lilly and Company, priority 2018, dated 2025)
Numbered stars: 1 amine (or outer) side, 2 acyl side, 3 side chain; on linkers, the order of the positions; unused ones are H or OH. Square brackets hold non-standard residues; d marks the D form. Side chains are listed from the residue outwards. Peptide text beside a SMILES is read from it. * marks the point of attachment. C20 diacid = O=C(O)CCCCCCCCCCCCCCCCCCC(=O)*; C18 diacid = O=C(O)CCCCCCCCCCCCCCCCC(=O)*; γGlu = O=C(O)[C@H](CCC(=O)[*:2])N[*:1]; αMeP = C[C@@]1(C(=O)O)CCCN1; AEEA = NCCOCCOCC(=O)O

How the values were obtained:
[1] = target: T1, gastric inhibitory peptide receptor (GIPR) (Homo sapiens, UniProt P48546); assay: cAMP pharmacological functional assay in presence of casein, hGIPR; format: cell-based; conditions: HEK293 cells expressing hGIPR, 0.1% Casein, geometric mean; read-out: hGIPR cAMP Rel EC50 nM (SEM, n)
T1 sequence (P48546 22-466): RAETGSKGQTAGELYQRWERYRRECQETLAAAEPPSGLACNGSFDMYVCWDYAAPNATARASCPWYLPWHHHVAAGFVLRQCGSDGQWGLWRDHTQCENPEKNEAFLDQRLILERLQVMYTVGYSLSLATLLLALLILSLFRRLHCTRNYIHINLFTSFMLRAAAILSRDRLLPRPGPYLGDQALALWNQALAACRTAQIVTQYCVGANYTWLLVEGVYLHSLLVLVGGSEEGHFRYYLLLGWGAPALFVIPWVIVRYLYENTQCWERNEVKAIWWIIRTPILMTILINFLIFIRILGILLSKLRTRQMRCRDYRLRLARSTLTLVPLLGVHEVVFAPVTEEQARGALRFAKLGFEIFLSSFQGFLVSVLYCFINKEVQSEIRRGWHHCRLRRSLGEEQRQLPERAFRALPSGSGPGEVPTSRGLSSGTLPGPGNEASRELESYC

[2] = target: human GLP-1 receptor (GLP-1R) (Homo sapiens, UniProt P43220); assay: cAMP pharmacological functional assay in presence of casein, hGLP-1R; format: cell-based; conditions: HEK293 cells expressing hGLP-1R, 0.1% Casein, geometric mean; read-out: hGLP1R cAMP Rel EC50 nM (SEM, n)
human GLP-1 receptor (GLP-1R), sequence (P43220 24-463): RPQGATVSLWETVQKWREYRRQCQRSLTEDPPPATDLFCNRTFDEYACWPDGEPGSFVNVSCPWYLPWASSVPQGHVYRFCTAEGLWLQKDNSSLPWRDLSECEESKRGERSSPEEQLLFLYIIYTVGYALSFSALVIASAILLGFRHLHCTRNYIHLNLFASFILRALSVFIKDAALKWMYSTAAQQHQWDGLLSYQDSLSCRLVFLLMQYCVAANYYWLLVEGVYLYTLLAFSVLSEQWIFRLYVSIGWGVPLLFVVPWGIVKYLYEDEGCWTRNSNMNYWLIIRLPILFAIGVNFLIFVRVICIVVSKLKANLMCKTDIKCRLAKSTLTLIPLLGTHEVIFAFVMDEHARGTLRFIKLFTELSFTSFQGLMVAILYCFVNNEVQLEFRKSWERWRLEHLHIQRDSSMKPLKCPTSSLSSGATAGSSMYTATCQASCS

SMILES | EC50 [1] [nM] | EC50 [2] [nM]
CC[C@H](C)[C@H](NC(=O)[C@H](CC(C)C)NC(=O)[C@H](Cc1ccc(O)cc1)NC(=O)[C@H](CCC(=O)O)NC(=O)[C@@H](NC(=O)[C@H](Cc1ccccc1)NC(=O)[C@H](C)NC(=O)[C@H](Cc1c[nH]cn1)NC(=O)[C@H](CCC(N)=O)NC(=O)[C@H](C)NC(=O)[C@H](CCCCNC(=O)COCCOCCNC(=O)COCCOCCNC(=O)CC[C@H](NC(=O)CCCCCCCCCCCCCCCCCCC(=O)O)C(=O)O)NC(=O)[C@H](CCC(=O)O)NC(=O)[C@H](CC(=O)O)NC(=O)[C@H](CC(C)C)NC(=O)[C@H](CC(C)C)NC(=O)[C@@H](NC(=O)[C@H](CO)NC(=O)[C@H](Cc1ccc(O)cc1)NC(=O)[C@H](CC(=O)O)NC(=O)[C@H](CO)NC(=O)[C@@H](NC(=O)[C@H](Cc1ccccc1)NC(=O)[C@@H](NC(=O)CNC(=O)[C@H](CCC(=O)O)NC(=O)[C@]1(C)CCCN1C(=O)[C@@H](N)Cc1ccc(O)cc1)[C@@H](C)O)[C@@H](C)O)[C@@H](C)CC)[C@@H](C)CC)C(=O)N[C@@H](CCC(=O)O)C(=O)NCC(=O)NCC(=O)N1CCC[C@H]1C(=O)N[C@@H](CO)C(=O)N[C@@H](CO)C(=O)NCC(=O)N[C@@H](C)C(=O)N1CCC[C@H]1C(=O)N1CCC[C@H]1C(=O)N1CCC[C@H]1C(=O)N[C@@H](CO)C(N)=O [Example 194] (H-Y[αMeP]EGTFTSDYSILLDEK([AEEA-AEEA-γGlu-C20 diacid])AQHAFIEYLIEGGPSSGAPPPS-NH2; N-terminus assumed) | 0.423 | 0.284
CC[C@H](C)[C@H](NC(=O)[C@H](CC(C)C)NC(=O)[C@H](Cc1ccc(O)cc1)NC(=O)[C@H](CCC(=O)O)NC(=O)[C@@H](NC(=O)[C@H](Cc1ccccc1)NC(=O)[C@H](C)NC(=O)[C@H](CCC(N)=O)NC(=O)[C@H](CCC(N)=O)NC(=O)[C@H](C)NC(=O)[C@H](CCCCNC(=O)COCCOCCNC(=O)COCCOCCNC(=O)CC[C@H](NC(=O)CCCCCCCCCCCCCCCCCCC(=O)O)C(=O)O)NC(=O)[C@H](CCCNC(=N)N)NC(=O)[C@H](CC(=O)O)NC(=O)[C@H](CC(C)C)NC(=O)[C@H](CC(C)C)NC(=O)[C@@H](NC(=O)[C@H](CO)NC(=O)[C@H](Cc1ccc(O)cc1)NC(=O)[C@H](CC(=O)O)NC(=O)[C@H](CO)NC(=O)[C@@H](NC(=O)[C@H](Cc1ccccc1)NC(=O)[C@@H](NC(=O)CNC(=O)[C@H](CCC(=O)O)NC(=O)[C@]1(C)CCCN1C(=O)[C@@H](N)Cc1ccc(O)cc1)[C@@H](C)O)[C@@H](C)O)[C@@H](C)CC)[C@@H](C)CC)C(=O)N[C@@H](CCC(=O)O)C(=O)NCC(=O)NCC(=O)N1CCC[C@H]1C(=O)N[C@@H](CO)C(=O)N[C@@H](CO)C(=O)NCC(=O)N[C@@H](C)C(=O)N1CCC[C@H]1C(=O)N1CCC[C@H]1C(=O)N1CCC[C@H]1C(=O)N[C@@H](CO)C(N)=O [Example 195] (H-Y[αMeP]EGTFTSDYSILLDRK([AEEA-AEEA-γGlu-C20 diacid])AQQAFIEYLIEGGPSSGAPPPS-NH2) | 0.193 | 0.0966
CC[C@H](C)[C@H](NC(=O)[C@H](CC(C)C)NC(=O)[C@H](Cc1ccc(O)cc1)NC(=O)[C@H](CCC(=O)O)NC(=O)[C@@H](NC(=O)[C@H](Cc1ccccc1)NC(=O)[C@H](C)NC(=O)[C@H](Cc1c[nH]cn1)NC(=O)[C@H](CCC(N)=O)NC(=O)[C@H](C)NC(=O)[C@H](CCCCNC(=O)COCCOCCNC(=O)COCCOCCNC(=O)CC[C@H](NC(=O)CCCCCCCCCCCCCCCCCCC(=O)O)C(=O)O)NC(=O)[C@H](CCCNC(=N)N)NC(=O)[C@H](CC(=O)O)NC(=O)[C@H](CC(C)C)NC(=O)[C@H](CC(C)C)NC(=O)[C@@H](NC(=O)[C@H](CO)NC(=O)[C@H](Cc1ccc(O)cc1)NC(=O)[C@H](CC(=O)O)NC(=O)[C@H](CO)NC(=O)[C@@H](NC(=O)[C@H](Cc1ccccc1)NC(=O)[C@@H](NC(=O)CNC(=O)[C@H](CCC(=O)O)NC(=O)[C@]1(C)CCCN1C(=O)[C@@H](N)Cc1ccc(O)cc1)[C@@H](C)O)[C@@H](C)O)[C@@H](C)CC)[C@@H](C)CC)C(=O)N[C@@H](CCC(=O)O)C(=O)NCC(=O)NCC(=O)N1CCC[C@H]1C(=O)N[C@@H](CO)C(=O)N[C@@H](CO)C(=O)NCC(=O)N[C@@H](C)C(=O)N1CCC[C@H]1C(=O)N1CCC[C@H]1C(=O)N1CCC[C@H]1C(=O)N[C@@H](CO)C(N)=O [Example 196] (H-Y[αMeP]EGTFTSDYSILLDRK([AEEA-AEEA-γGlu-C20 diacid])AQHAFIEYLIEGGPSSGAPPPS-NH2) | 0.277 | 0.175
CC[C@H](C)[C@H](NC(=O)[C@H](CC(C)C)NC(=O)[C@H](Cc1ccc(O)cc1)NC(=O)[C@H](CCC(=O)O)NC(=O)[C@@H](NC(=O)[C@H](Cc1ccccc1)NC(=O)[C@H](C)NC(=O)[C@H](CCC(N)=O)NC(=O)[C@H](CCC(N)=O)NC(=O)[C@H](C)NC(=O)[C@H](CCCCNC(=O)COCCOCCNC(=O)COCCOCCNC(=O)CC[C@H](NC(=O)CCCCCCCCCCCCCCCCC(=O)O)C(=O)O)NC(=O)[C@H](CCC(=O)O)NC(=O)[C@H](CC(=O)O)NC(=O)[C@H](CC(C)C)NC(=O)[C@H](CC(C)C)NC(=O)[C@@H](NC(=O)[C@H](CO)NC(=O)[C@H](Cc1ccc(O)cc1)NC(=O)[C@H](CC(=O)O)NC(=O)[C@H](CO)NC(=O)[C@@H](NC(=O)[C@H](Cc1ccccc1)NC(=O)[C@@H](NC(=O)CNC(=O)[C@H](CCC(=O)O)NC(=O)[C@]1(C)CCCN1C(=O)[C@@H](N)Cc1ccc(O)cc1)[C@@H](C)O)[C@@H](C)O)[C@@H](C)CC)[C@@H](C)CC)C(=O)N[C@@H](CCC(=O)O)C(=O)NCC(=O)NCC(=O)N1CCC[C@H]1C(=O)N[C@@H](CO)C(=O)N[C@@H](CO)C(=O)NCC(N)=O [Example 197] (H-Y[αMeP]EGTFTSDYSILLDEK([AEEA-AEEA-γGlu-C18 diacid])AQQAFIEYLIEGGPSSG-NH2) | 0.211 | 0.248
CC[C@H](C)[C@H](NC(=O)[C@H](CC(C)C)NC(=O)[C@H](Cc1ccc(O)cc1)NC(=O)[C@H](CCC(=O)O)NC(=O)[C@@H](NC(=O)[C@H](Cc1ccccc1)NC(=O)[C@H](C)NC(=O)[C@H](CCC(N)=O)NC(=O)[C@H](CCC(N)=O)NC(=O)[C@H](C)NC(=O)[C@H](CCCCNC(=O)COCCOCCNC(=O)COCCOCCNC(=O)CC[C@H](NC(=O)CCCCCCCCCCCCCCCCC(=O)O)C(=O)O)NC(=O)[C@H](CCC(=O)O)NC(=O)[C@H](CC(=O)O)NC(=O)[C@H](CC(C)C)NC(=O)[C@H](CC(C)C)NC(=O)[C@@H](NC(=O)[C@H](CO)NC(=O)[C@H](Cc1ccc(O)cc1)NC(=O)[C@H](CC(=O)O)NC(=O)[C@H](CO)NC(=O)[C@@H](NC(=O)[C@H](Cc1ccccc1)NC(=O)[C@@H](NC(=O)CNC(=O)[C@H](CCC(=O)O)NC(=O)[C@]1(C)CCCN1C(=O)[C@H](N)Cc1ccc(O)cc1)[C@@H](C)O)[C@@H](C)O)[C@@H](C)CC)[C@@H](C)CC)C(=O)N[C@@H](CCC(=O)O)C(=O)NCC(=O)NCC(=O)N1CCC[C@H]1C(=O)N[C@@H](CO)C(=O)N[C@@H](CO)C(=O)NCC(N)=O [Example 198] (H-[dY][αMeP]EGTFTSDYSILLDEK([AEEA-AEEA-γGlu-C18 diacid])AQQAFIEYLIEGGPSSG-NH2) | > 30 | 0.139
